Measurements reported in paper PMC9691607 (Journal of medicinal chemistry, 2022).

Assays:
HDAC1 = conditions: read-out: HDAC1 IC50; Sandrone et al., different substrates; ref [47]; cited from earlier work
HDAC6 = conditions: ref [47], cited from earlier work; for IC50: read-out: HDAC6 IC50, Sandrone et al., different substrates; for SI (IC50 (HDAC1)/IC50 (HDAC6)): selectivity index HDAC1/6, Sandrone et al.
human HDAC6 = target: T1, human HDAC6 (Homo sapiens, UniProt Q9UBN7); assay: HDAC6 inhibition assay; format: biochemical; conditions: selectivity index HDAC1/6
T1 sequence (Q9UBN7 1-1215): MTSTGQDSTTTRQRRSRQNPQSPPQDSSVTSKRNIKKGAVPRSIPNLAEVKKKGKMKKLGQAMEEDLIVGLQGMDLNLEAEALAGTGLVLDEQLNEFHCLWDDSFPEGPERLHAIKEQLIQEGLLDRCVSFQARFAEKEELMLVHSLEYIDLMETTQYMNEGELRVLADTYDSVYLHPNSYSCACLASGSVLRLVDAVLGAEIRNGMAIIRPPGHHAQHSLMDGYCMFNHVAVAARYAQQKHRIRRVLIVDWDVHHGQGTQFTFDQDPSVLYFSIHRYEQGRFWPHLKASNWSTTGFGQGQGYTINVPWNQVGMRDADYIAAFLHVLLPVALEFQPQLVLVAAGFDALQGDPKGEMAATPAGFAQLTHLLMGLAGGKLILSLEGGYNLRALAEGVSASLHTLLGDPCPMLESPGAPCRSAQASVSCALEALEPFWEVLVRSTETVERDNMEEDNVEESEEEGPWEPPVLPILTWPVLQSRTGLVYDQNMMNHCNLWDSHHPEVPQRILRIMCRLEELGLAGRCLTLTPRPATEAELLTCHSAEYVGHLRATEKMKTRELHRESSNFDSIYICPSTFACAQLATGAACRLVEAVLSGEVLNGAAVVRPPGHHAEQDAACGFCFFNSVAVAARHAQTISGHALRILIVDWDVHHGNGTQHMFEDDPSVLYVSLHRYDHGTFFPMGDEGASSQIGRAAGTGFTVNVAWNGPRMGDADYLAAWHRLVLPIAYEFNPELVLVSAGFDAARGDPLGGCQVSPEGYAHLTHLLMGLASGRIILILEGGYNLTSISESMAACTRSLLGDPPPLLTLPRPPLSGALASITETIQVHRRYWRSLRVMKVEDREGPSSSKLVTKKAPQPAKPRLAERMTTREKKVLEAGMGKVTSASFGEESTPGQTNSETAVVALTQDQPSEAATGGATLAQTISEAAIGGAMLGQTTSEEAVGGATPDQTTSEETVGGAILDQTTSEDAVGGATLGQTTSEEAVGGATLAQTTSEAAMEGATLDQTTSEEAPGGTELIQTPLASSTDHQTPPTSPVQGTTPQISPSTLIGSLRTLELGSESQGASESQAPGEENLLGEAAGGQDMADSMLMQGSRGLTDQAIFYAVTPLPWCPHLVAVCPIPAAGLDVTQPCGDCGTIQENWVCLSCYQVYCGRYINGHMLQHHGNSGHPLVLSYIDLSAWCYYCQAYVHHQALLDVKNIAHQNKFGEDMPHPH

HL60 cells [1] = assay: Immunoblotting of acetyl-α-tubulin and acetyl-histone H3; format: cell-based; conditions: 24 h; for acetylation of histone 3 (Ac-H3) / acetylation of α-tubulin: IC12.5-IC75 concentrations (ricolinostat at its IC50)
HL60 = assay: Combinatorial drug screening with decitabine, HL60; format: cell-based; conditions: combination with decitabine, HL60, 72 h co-treatment
HL60 cells [2] = assay: Annexin V / PI apoptosis assay; format: cell-based; conditions: 1 μM or 5 μM, 48 h, annexin V and propidium iodide, flow cytometry
Jurkat = assay: Combinatorial drug screening with decitabine, Jurkat; format: cell-based; conditions: combination with decitabine, 72 h co-treatment
MOLM13 = assay: Combinatorial drug screening with decitabine, MOLM13; format: cell-based; conditions: combination with decitabine, MOLM13, 72 h co-treatment
leukemia cell lines = format: cell-based; conditions: broad range of leukemia cell lines from therapy refractory subgroups; two healthy human fibroblast controls; values in Supplementary Table S1
HAL01 = assay: Combinatorial drug screening with decitabine, HAL01; format: cell-based; conditions: combination with decitabine, HAL01, 72 h co-treatment
HDAC4 = HDAC4 (Homo sapiens, UniProt P56524); assay: HDAC4 inhibition assay; format: biochemical
HDAC4, sequence (P56524 627-1084 limits assumed): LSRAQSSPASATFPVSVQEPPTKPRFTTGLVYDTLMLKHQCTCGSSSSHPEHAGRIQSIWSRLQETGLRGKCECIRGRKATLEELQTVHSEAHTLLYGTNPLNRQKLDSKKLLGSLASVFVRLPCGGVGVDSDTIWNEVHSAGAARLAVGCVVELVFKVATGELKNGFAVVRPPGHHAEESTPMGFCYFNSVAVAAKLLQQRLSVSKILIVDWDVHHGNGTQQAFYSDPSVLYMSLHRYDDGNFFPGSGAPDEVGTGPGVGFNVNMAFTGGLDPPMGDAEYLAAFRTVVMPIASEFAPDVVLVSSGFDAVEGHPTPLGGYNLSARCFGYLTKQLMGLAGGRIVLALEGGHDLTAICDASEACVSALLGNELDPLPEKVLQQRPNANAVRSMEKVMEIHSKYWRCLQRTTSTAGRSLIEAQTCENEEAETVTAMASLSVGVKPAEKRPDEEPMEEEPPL

In the case of `O=C(NO)c1cccc(F)c1` [3-fluoro-N-hydroxybenzamide], the IC50 (HDAC1) is listed as 29.4 µM, the IC50 (HDAC6) is listed as 0.453 µM and the “SI (IC50 (HDAC1)/IC50 (HDAC6))” value (HDAC6) is listed as 65.
In the case of `Cc1cc(C)cc(C(=O)N(CC(=O)NCc2ccccc2)Cc2ccc(C(=O)NO)cc2F)c1` [Compound 10g, 4-({N-[(Benzylcarbamoyl)methyl]-1-(3,5-dimethylphenyl)formamido}methyl)-3-fluoro-N-hydroxybenzamide], the “SI (IC50 (HDAC1)/IC50 (HDAC6))” value (human HDAC6) is reported as 6–24.
In the case of `CN(C)c1ccc(C(=O)N(CC(=O)NCc2ccccc2)Cc2ccc(C(=O)NO)cc2F)cc1` [Compound 10h, 4-({N-[(Benzylcarbamoyl)methyl]-1-[4-(dimethylamino)phenyl]formamido}methyl)-3-fluoro-N-hydroxybenzamide], the “acetylation of histone 3 (Ac-H3)” value (HL60 cells [1]) is reported as “dose-dependent increase”, the “acetylation of α-tubulin” value (HL60 cells [1]) is reported as “dose-dependent increase” and the “acetylation of H3 on co-administration with decitabine” value (HL60 cells [1]; combination with decitabine vs mono-treatment) is reported as “strong induction of acetylation of H3 as compared to mono-treatment”. The ZIP synergy score (HL60) was 25.08, the induction of apoptosis (HL60 cells [2]) was “significant (p < 0.0001) increase in apoptotic cells” and the ZIP synergy score (Jurkat) was −0.87. For the same compound, the ZIP synergy score (MOLM13) was 27.44, the “cellular viability of leukemia cell lines” value (leukemia cell lines) was “markedly outperformed CI994 and ricolinostat” and the ZIP synergy score (HAL01) was 1.18.
For `CC(C)c1ccccc1C(=O)N(CC(=O)NC(C)(C)C)Cc1ccc(C(=O)NO)cc1F` [Compound 10p, 4-({N-[(tert-Butylcarbamoyl)methyl]-1-[2-(propan-2-yl)phenyl]formamido}methyl)-3-fluoro-N-hydroxybenzamide], the “acetylation of histone 3 (Ac-H3)” value (HL60 cells [1]) was “no effect on Ac-H3 levels”, the “acetylation of α-tubulin” value (HL60 cells [1]) was “induced acetylation of α-tubulin” and the ZIP synergy score (HL60) was 7.78. For the same compound, the induction of apoptosis (HL60 cells [2]) was “weaker (in comparison to 10h) although significant (p < 0.05) apoptosis induction”, the ZIP synergy score (MOLM13) was 7.18 and the “cellular viability of leukemia cell lines” value (leukemia cell lines) was “IC50 values ranging in the high micromolar concentration”.
`CN(C)c1ccc(C(=O)N(CC(=O)NCc2ccccc2)Cc2ccc(C(=O)NO)cc2)cc1` [DDK137] showed an IC50 (HDAC4) of 2.67 µM.
In the case of `O=C(NO)c1ccccc1` [N-hydroxybenzamide], the IC50 (HDAC1) is listed as 25.4 µM, the IC50 (HDAC6) is listed as 1.34 µM and the “SI (IC50 (HDAC1)/IC50 (HDAC6))” value (HDAC6) is listed as 19.
In the case of `O=C(CCCCCCNC(=O)c1cnc(N(c2ccccc2)c2ccccc2)nc1)NO` [Ricolinostat, ricolinostat, reference compound], the “acetylation of histone 3 (Ac-H3)” value (HL60 cells [1]) is reported as “lower Ac-H3 levels than observed for 10h” and the “acetylation of α-tubulin” value (HL60 cells [1]) is reported as “prominent acetylation of α-tubulin”.
